Our source for the TGI values is PubChem BioAssay (NCI).

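Compound exposure: 48 hours, 5 concentrations, 96-well plates. At the TGI there is no net growth.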

Among the test systems are ACHN renal; CAKI-1 renal; EKVX NSCLC; HCT-15 colon; HOP-62 NSCLC; HOP-92 NSCLC; MCF7 breast; MDA-MB-231 breast; MDA-N; NCI-H226 lung; NCI-H23 lung; NCI-H460 lung; NCI-H522 lung; OVCAR-5 ovarian; PC-3 prostate; SF-268 CNS; T-47D breast; MALME-3M melanoma.
Experiment in all cases: NCI anticancer screen, dose series, 48 h

Turning to `N#CC(O)CCOCc1ccccc1` (configuration not stated), the TGI with ACHN renal was above 100 µM; in the test with CAKI-1 renal, 35.6 µM; in the test with EKVX NSCLC, above 100 µM; with HCT-15 colon, above 100 µM; in the test on HOP-62 NSCLC, above 100 µM; in the test with HOP-92 NSCLC, above 100 µM. Moreover, the TGI with MCF7 breast, in the test on MDA-MB-231 breast, in the test on MDA-N, in the test on NCI-H226 lung, in the test on NCI-H23 lung and with NCI-H460 lung was above 100 µM in each case. Further, the TGI was 51.4 µM in the test with NCI-H522 lung; above 100 µM in the test with OVCAR-5 ovarian; above 100 µM in the test on PC-3 prostate; above 100 µM in the test on SF-268 CNS; above 100 µM in the test with T-47D breast.
As for `NC(=O)c1ncn(C2C=CC(CP(=O)(O)O)C2)c1N` (configuration not stated), the TGI with ACHN renal, in the test with CAKI-1 renal, in the test on EKVX NSCLC, with HCT-15 colon, in the test with HOP-62 NSCLC and in the test on HOP-92 NSCLC was above 100 µM in each case. In addition, the TGI in the test on MALME-3M melanoma, with MCF7 breast, in the test on MDA-MB-231 breast, with MDA-N, in the test with NCI-H226 lung and in the test with NCI-H23 lung was above 100 µM each time. Further, the TGI in the test on NCI-H460 lung, with OVCAR-5 ovarian, in the test on PC-3 prostate, with SF-268 CNS and in the test on T-47D breast was above 100 µM each time.
With `CCOC(=O)c1c(NC(=S)Nc2ccccc2)sc2c1CCN(C)C2`, the TGI with ACHN renal, in the test on CAKI-1 renal, with EKVX NSCLC, in the test on HCT-15 colon, with HOP-62 NSCLC and in the test on MCF7 breast was above 100 µM in each case. Moreover, the TGI in the test on MDA-MB-231 breast, in the test on MDA-N, in the test on NCI-H226 lung, in the test with NCI-H23 lung, with NCI-H460 lung and with OVCAR-5 ovarian was above 100 µM in each case. The TGI in the test on PC-3 prostate, in the test with SF-268 CNS and in the test on T-47D breast was above 100 µM each time.
Take `CCOC(=O)C1CCCc2sc(N)c(C#N)c21` (configuration not stated): the TGI in the test on ACHN renal, with EKVX NSCLC, with HCT-15 colon, in the test on HOP-62 NSCLC, in the test with HOP-92 NSCLC and with MALME-3M melanoma was above 100 µM each time. Also, the TGI in the test with MCF7 breast, in the test with MDA-MB-231 breast, in the test on MDA-N, in the test on NCI-H226 lung, in the test on NCI-H23 lung and in the test on NCI-H460 lung was above 100 µM in each case. In addition, the TGI in the test on OVCAR-5 ovarian, with PC-3 prostate and in the test with T-47D breast was above 100 µM each time.
Turning to `COc1cccc([C@@H]2C/C(=N\NC(=O)C(=O)N[C@@H](C)c3ccccc3)c3ccccc3N2)c1`, the TGI in the test with ACHN renal, in the test with CAKI-1 renal, in the test with EKVX NSCLC, with HCT-15 colon, in the test on HOP-62 NSCLC and with HOP-92 NSCLC was above 100 µM throughout. The TGI in the test on MCF7 breast, with MDA-MB-231 breast, in the test on MDA-N, in the test on NCI-H226 lung, with OVCAR-5 ovarian and in the test with PC-3 prostate was above 100 µM throughout. In addition, the TGI in the test on SF-268 CNS and with T-47D breast was above 100 µM throughout.
For `Cn1c(=O)c2c(nc3n2CCCC(=O)N3CCCCl)n(C)c1=O`, the TGI in the test with ACHN renal, with CAKI-1 renal, with EKVX NSCLC, in the test with HCT-15 colon, in the test with HOP-62 NSCLC and in the test with HOP-92 NSCLC was above 100 µM in each case. Further, the TGI in the test with MCF7 breast, with MDA-MB-231 breast, in the test on MDA-N, with NCI-H226 lung, with NCI-H23 lung and in the test on NCI-H460 lung was above 100 µM each time. Also, the TGI with NCI-H522 lung, in the test on OVCAR-5 ovarian, in the test with PC-3 prostate, in the test with SF-268 CNS and in the test on T-47D breast was above 100 µM in each case.
`Cc1cccc(N=Nc2c(C)nn(C(=O)CC(=O)Nc3ccc(Cl)cc3)c2C)c1`: the TGI with ACHN renal is above 100 µM; with CAKI-1 renal, above 100 µM; in the test on EKVX NSCLC, 96.9 µM; with HCT-15 colon it was above 100 µM; with HOP-62 NSCLC, above 100 µM; in the test on HOP-92 NSCLC, 79.6 µM. For the same compound, the TGI in the test with MCF7 breast, in the test with MDA-MB-231 breast, with MDA-N, in the test with NCI-H226 lung, in the test on NCI-H23 lung and in the test with NCI-H460 lung was above 100 µM in each case. For the same compound, the TGI with NCI-H522 lung, with OVCAR-5 ovarian, in the test on PC-3 prostate, with SF-268 CNS and with T-47D breast was above 100 µM throughout.
